In US7838463B2, “Safeners based on acrylic-aliphatic carboxylic acid derivatives” (Bayer CropScience AG, priority 2003, dated 2010):

How the values were obtained:
Type in all cases: in vivo
[1] = test system: Zea mays (corn), cv. 'Lorenzo'; assay: Post-emergence application of herbicide H2 (foramsulfuron) and safener by the tank mix method: crop damage; details: safener 250 g a.i./ha + herbicide H2 (foramsulfuron) 40 g a.i./ha, post-emergence tank mix; for Safener action as % damage reduction in crop plants: ZEAMA, versus herbicide alone; for % damage in ZEAMA: visual scoring four weeks after application
Text: (§1) Seeds of various crop plants and weed species were sown in sandy loam soil in round plastic pots of a diameter of 13 cm and covered with a layer of sandy loam of a thickness of about 1 cm. The pots were placed in a greenhouse under favorable growth conditions for a period of about two to three weeks, allowing the plants to reach a growth stage of 2 to 4 leaves. The herbicides in the form of liquid (for example emulsion concentrates) or dry (for example water-dispersible powders) formulations were mixed with a standard additive (based on rapeseed oil methyl ester), diluted with deionized water to the required concentrations and applied to the green parts of the plants and the uncovered part of the soil surface with a spray bar using a water application rate of 300 liters per hectare. In the experiment shown below, safener and the herbicide foramsulfuron were in each case used as 20 percent strength water-dispersible powder (results see table 1.2.1). The pots were placed in a greenhouse under favorable growth conditions. Visual scoring of the herbicidal action was carried out four weeks after the herbicide application. Evaluation was carried out on a percentage basis by comparison with untreated control plants (0%=no noticeable effect compared with the untreated plant, 100%=treated plant dies).

Amaranthus retroflexus [2] = assay: Post-emergence application of herbicide H2 (foramsulfuron) and safener by the tank mix method: herbicidal action; details: safener 250 g a.i./ha + herbicide H2 (foramsulfuron) 40 g a.i./ha, post-emergence tank mix; four weeks
Text: as §1

Setaria viridis [3] = assay: as above; details: safener 250 g a.i./ha + herbicide H2 (foramsulfuron) 40 g a.i./ha, post-emergence tank mix; four weeks
Text: as §1

[4] = test system: Zea mays (corn), cv. 'Lorenzo'; assay: Pre-emergence application of herbicide H1 (isoxaflutole) and safener by the tank mix method: crop damage; details: safener 250 g a.i./ha + herbicide H1 (isoxaflutole) 100 g a.i./ha, pre-emergence tank mix
Protocol: (§2) Seeds of various crop plants and weed species were sown in sandy loam soil in round plastic pots of a diameter of 13 cm and covered with a layer of sandy loam of a thickness of about 1 cm. Herbicides and safeners in the form of liquid (for example emulsion concentrates) or dry (for example water-dispersible powders) formulations were diluted with deionized water to the required concentrations and applied to the surface of the soil with a spray bar using a water application rate of 300 liters per hectare. In the experiment shown below, the safeners were used as 20 percent strength water-dispersible powders and the herbicide isoxaflutole was used as an aqueous suspension concentrate (see table 1.1.1). The pots were placed in a greenhouse under favorable growth conditions. Visual scoring of the herbicidal action was carried out four weeks after the herbicide application. Evaluation was carried out on a percentage basis by comparison with untreated control plants (0%=no noticeable effect compared with the untreated plant, 100%=treated plant dies).

Chenopodium album [5] = assay: Pre-emergence application of herbicide H1 (isoxaflutole) and safener by the tank mix method: herbicidal action; details: safener 250 g a.i./ha + herbicide H1 (isoxaflutole) 100 g a.i./ha, pre-emergence tank mix; four weeks
Protocol: as §2

Setaria viridis [6] = assay: as above; details: safener 250 g a.i./ha + herbicide H1 (isoxaflutole) 100 g a.i./ha, pre-emergence tank mix; four weeks
Protocol: as §2

[7] = test system: Zea mays (corn), cv. 'Lorenzo'; assay: Post-emergence application of herbicide H3 (glufosinate-ammonium) and safener by the tank mix method: crop damage; details: safener 250 g a.i./ha + herbicide H3 (glufosinate-ammonium) 250 g a.i./ha, post-emergence tank mix
Text: (§3) Seeds of various crop plants and weed species were sown in sandy loam soil in round plastic pots of a diameter of 13 cm and covered with a layer of sandy loam of a thickness of about 1 cm. The pots were placed in a greenhouse under favorable growth conditions for a duration of about two to three weeks, allowing the plants to reach a growth stage of 2 to 4 leaves. The herbicides, in the form of liquid (for example emulsion concentrates, aqueous solutions) or dry (for example water-dispersible powders) formulations, were diluted with deionized water to the required concentrations and applied to the green parts of the plants and the uncovered part of the surface of the soil with a spray bar using a water application rate of 300 liters per hectare. In the experiment shown below, the safeners were used as 20 percent strength water-dispersible powders and the herbicide glufosinate-ammonium as a commercial 20 percent strength aqueous surfactant-containing solution (results see table 1.2.2).
(§4) The pots were placed in a greenhouse under favorable growth conditions. Visual scoring of the herbicidal action was carried out four weeks after the herbicidal application. Evaluation was carried out on a percentage basis by comparison with untreated control plants (0%=no noticeable effect compared with the untreated plant, 100%=treated plant dies).

Amaranthus retroflexus [8] = assay: Post-emergence application of herbicide H3 (glufosinate-ammonium) and safener by the tank mix method: herbicidal action; details: safener 250 g a.i./ha + herbicide H3 (glufosinate-ammonium) 250 g a.i./ha, post-emergence tank mix; four weeks
Text: as §3, §4

Chenopodium album [9] = assay: as above; details: safener 250 g a.i./ha + herbicide H3 (glufosinate-ammonium) 250 g a.i./ha, post-emergence tank mix; four weeks
Text: as §3, §4

[10] = test system: Glycine max (soybean), cv. 'Lambert'; assay: Pre-emergence application of herbicide H1 (isoxaflutole) after seed dressing with safener; details: seed dressing with safener 1 g a.i./kg of seed
Protocol: (§5) The number of crop plant seeds required for each application rate of safener was calculated. Sufficient seeds were weighed-out into glass bottles having a screw-on lid. The volume of the glass bottles was approximately twice that of the seeds weighed out.
(§6) The safeners were formulated as 20 percent strength water-dispersible powders. These formulations were weighed out to give the required application rates (g of a.i./kg of seed). The samples were added to the seed in the glass containers, and sufficient water to form a suitable seed dressing was then added. The glass bottles were closed and then mounted in an overhead shaker (which turns the bottles at moderate speed for a period of up to one hour) so that the seeds were uniformly covered with the seed dressing. The bottles were opened and the seed was ready for use in pre-emergence or post-emergence experiments, as described below.
(§7) The seeds which had been treated with safeners and untreated seeds as controls were sown in sandy loam soil in round plastic pots of a diameter of 13 cm and covered with a layer of sandy loam of a thickness of about 1 cm. The herbicides in the form of liquid (for example emulsion concentrates) or dry (for example water-dispersible powders) formulations were diluted with deionized water to the required concentrations and applied to the surface of the soil with a spray bar using a water application rate of 300 liters per hectare. In the two experiments shown below (results see tables 2.2.1 and 2.2.2), the herbicide isoxaflutole was used as an aqueous suspension concentrate.
as §4, with “after the herbicide application. Evaluation” for “after the herbicidal application. Evaluation”

[11] = test system: Zea mays (corn), cv. 'Lorenzo'; assay: as above; details: seed dressing with safener 1 g a.i./kg of seed
Protocol: as §5, §6, §7
as §4, with “after the herbicide application. Evaluation” for “after the herbicidal application. Evaluation”

[12] = test system: Zea mays (corn), cv. 'Lorenzo'; assay: Post-emergence application of herbicide H2 (foramsulfuron) after seed dressing with safener; details: seed dressing with safener 1 g a.i./kg of seed
Protocol: The number of crop plant seeds required for each application rate of safener was calculated. Sufficient seeds were weighed-out into glass bottles having a screw-on lid. The volume of the glass bottles was approximately twice that of the seeds weighed out. The safeners were formulated as 20 percent strength water-dispersible powders. These formulations were weighed out to give the required application rates (g of a.i./kg of seed). The samples were added to the seed in the glass containers, and sufficient water to form a suitable seed dressing was then added. The glass bottles were closed and then mounted in an overhead shaker (which turns the bottles at moderate speed for a period of up to one hour) so that the seeds were uniformly covered with the seed dressing. The bottles were opened and the seed was ready for use in pre-emergence or post-emergence experiments, as described below. The seeds treated with safener and untreated seeds were sown in sandy loam soil in round plastic pots of a diameter of 13 cm and covered with a layer of sandy loam of a thickness of about 1 cm. The pots were placed in a greenhouse under favorable growth conditions for a period of about two to three weeks, allowing the plants to reach a growth stage of 2 to 4 leaves. The herbicides in the form of liquid (for example emulsion concentrates) or dry (for example water-dispersible powders) formulations were mixed with a standard additive (based on rapeseed oil methyl ester), diluted with deionized water to the required concentrations and applied to the green parts of the plants and the uncovered part of the soil surface with a spray bar using a water application rate of 300 liters per hectare. In the experiment shown below, the herbicide foramsulfuron was used as 20 percent strength water-dispersible powder (results see table 2.3.1). The pots were placed in a greenhouse under favorable growth conditions. Visual scoring of the herbicidal action was carried out four weeks after the herbicide application. Evaluation was carried out on a percentage basis by comparison with untreated control plants (0%=no noticeable effect compared with the untreated plant, 100%=treated plant dies).

[13] = then herbicide H1 (isoxaflutole) 100 g a.i./ha pre-emergence, four weeks

| SMILES | Safener action as % damage reduction in crop plants [1] | % damage in ZEAMA [1] | Herbicidal action as % damage in AMARE (Amaranthus retroflexus [2]) | Herbicidal action as % damage in SETVI (Setaria viridis [3]) | Safener action as % damage reduction in crop plants ([4]; ZEAMA, versus herbicide alone) | % damage in ZEAMA ([4]; visual scoring four weeks after application, 0%=no effect, 100%=plant dies) | Herbicidal action as % damage in CHEAL (Chenopodium album [5]) | Herbicidal action as % damage in SETVI (Setaria viridis [6]) | Safener action as % damage reduction in crop plants ([7]; ZEAMA, versus herbicide alone) | % damage in ZEAMA ([7]; visual scoring four weeks after application) | Herbicidal action as % damage in AMARE (Amaranthus retroflexus [8]) | Herbicidal action as % damage in CHEAL (Chenopodium album [9]) | Safener action as % damage reduction in crop plants ([10]; GLXMA, herbicide H1 (isoxaflutole) 100 g a.i./ha pre-emergence, versus untreated seed) | % damage in GLXMA [10, 13] | Safener action as % damage reduction in crop plants ([11]; ZEAMA, herbicide H1 (isoxaflutole) 100 g a.i./ha pre-emergence, versus untreated seed) | % damage in ZEAMA [11, 13] | Safener action as % damage reduction in crop plants ([12]; ZEAMA, herbicide H2 (foramsulfuron) 40 g a.i./ha post-emergence, versus untreated seed) | % damage in ZEAMA ([12]; then herbicide H2 (foramsulfuron) 40 g a.i./ha post-emergence, four weeks) |
| --- | --- | --- | --- | --- | --- | --- | --- | --- | --- | --- | --- | --- | --- | --- | --- | --- | --- | --- |
| O=C(O)C=Cc1ccccc1F [Comp. 146, 2-fluorocinnamic acid] | 72% | 10% | 98% | 92% |  |  |  |  |  |  |  |  |  |  |  |  |  |  |
| CCOC(=O)C=Cc1cccc(O)c1 [Comp. 191, ethyl 3-hydroxycinnamate] | 56% | 16% | 99% | 96% |  |  |  |  |  |  |  |  |  |  |  |  |  |  |
| O=C(O)C=Cc1ccc(Cl)cc1Cl [Comp. 155, 2,4-dichlorocinnamic acid] | 83% | 6% | 98% | 95% | 74% | 7% | 95% | 95% | 66% | 21% | 94% | 92% | 64% | 30% | 72% | 7% | 88% | 4% |
| COc1ccc(C=CC(=O)O)cc1 [Comp. 154, 4-methoxycinnamic acid] | 67% | 12% | 96% | 95% |  |  |  |  |  |  |  |  |  |  |  |  |  |  |
